Experimental data from patent US6664263B2, “1,8-naphthalimide imidazo{4,5,1-de}acridones with anti-tumor activity” (priority 2000, dated 2003).
pIC50: −log10 of the molar value. Like-named read-outs stand apart in the source and are kept apart here.

Key:
[1] = tested on: HCT116, HT29, A549 and MelSK2 tumor cell lines; test: MTT cell proliferation assay at 100 nM on four tumor cell lines (FIG. 2); type: cell-based; conditions: 96 hours; for cytotoxic activity against the three adenocarcinomas: HCT116, HT29, A549
Procedure: (§1) Cancer Cell Lines. Human colon carcinoma HCT116 and HT29, human melanoma MELSK2, human lung cancer A549, human leukemia HL60 and human breast cancer MCF7 cells were purchased from the American Type Culture Collection (Rockville, Md.). Human pancreatic tumor cell lines 6.03 and 10.05 were a gift from Dr. Elizabeth Jaffe, Johns Hopkins University.
In Vitro Cytotoxicity Studies. Cells were seeded in quadruplicate for each studied concentration in 96-well plates (100 μL of medium containing 2000-2500 cells per well) and were allowed to grow for 24 h (day 0). Stock solutions (2.5 mM) of test compounds were prepared freshly by dissolving their free base forms in distilled water-DMSO (50:50) mixture containing two equivalents of methanesulfonic acid and then diluted in distilled water to the concentration of 500 μM. These solutions were used to prepare 2 μM working solution and its 10-fold serial dilutions in appropriate media. 100 μL of drug containing medium or vehicle (control) was added to each well on day 1. The cytotoxicity was determined using two different methods: the MTT-based, CellTiter96™ Non-Radioactive Cell Proliferation Assay (Promega Inc., Madison, Wis.) according to instructions provided by the manufacturer, and/or the sulforhodamine B (SRB) method (Skehan et al., J. Natl. Cancer Inst. 82:1107-1112 (1990)). At the time at which drugs were added assays were performed on extra reference plates to determine the cell population density at time 0 (T0). After 96 h incubation at 37 ° C. in a humidified atmosphere containing 5% CO2, the assays were performed on test (T) and control (C) plates. The absorbance of the wells was determined by a Microplate Reader at […]. Cellular responses were calculated from the data as described previously: 100×[(T−T0)/(C−T0)] for T>T0 and 100×[(T−T0)/T0] for T<T0. […]
At the end of the test period the wells are treated with the MTT dye solution and incubated for 4 hours. […] This precipitate is solubilized, and the absorption at 570 nm is read in an ELISA reader.

MELSK2 cells = test: cells; conditions: for pIC50: read-out: IC50 - drug concentration which causes 50% cell growth inhibition
Procedure: as §1
(§2) In Vitro Cytotoxicity Studies. Cells were seeded in quadruplicate for each studied concentration in 96-well plates (100 μL of medium containing 2000-2500 cells per well) and were allowed to grow for 24 h (day 0). Stock solutions (2.5 mM) of test compounds were prepared freshly by dissolving their free base forms in distilled water-DMSO (50:50) mixture containing two equivalents of methanesulfonic acid and then diluted in distilled water to the concentration of 500 μM. These solutions were used to prepare 2 μM working solution and its 10-fold serial dilutions in appropriate media. 100 μL of drug containing medium or vehicle (control) was added to each well on day 1. The cytotoxicity was determined using two different methods: the MTT-based, CellTiter96™ Non-Radioactive Cell Proliferation Assay (Promega Inc., Madison, Wis.) according to instructions provided by the manufacturer, and/or the sulforhodamine B (SRB) method (Skehan et al., J. Natl. Cancer Inst. 82:1107-1112 (1990)). At the time at which drugs were added assays were performed on extra reference plates to determine the cell population density at time 0 (T0). After 96 h incubation at 37 ° C. in a humidified atmosphere containing 5% CO2, the assays were performed on test (T) and control (C) plates. The absorbance of the wells was determined by a Microplate Reader at […]. Cellular responses were calculated from the data as described previously: 100×[(T−T0)/(C−T0)] for T>T0 and 100×[(T−T0)/T0] for T<T0. (Monks et al., J. Natl. Cancer Inst. 83:757-766 (1991)).
(§3) At the end of the test period the wells are treated with the MTT dye solution and incubated for 4 hours. Cells which are alive convert the yellow tetrazolium dye into the blue, insoluble formazan product. This precipitate is solubilized, and the absorption at 570 nm is read in an ELISA reader.

HCT116 cells = test: cells; conditions: for growth inhibition of HCT116 at 1 nM: MTT dose-response; for pIC50: read-out: IC50 - drug concentration which causes 50% cell growth inhibition
Procedure: as §1, §2, §3

HT29 cells = test: cells; conditions: for pIC50: read-out: IC50 - drug concentration which causes 50% cell growth inhibition
Procedure: as §1, §2, §3

A549 cells = test: cells; conditions: for pIC50: read-out: IC50 - drug concentration which causes 50% cell growth inhibition
Procedure: as §1, §2, §3

MCF7 cells = test: cells; type: cell-based; conditions: for pIC50: read-out: IC50 - drug concentration which causes 50% cell growth inhibition
Source text: (§4) In Vitro Cytotoxicity Studies.

HL60 cells = test: cells; type: cell-based; conditions: for pIC50: read-out: IC50 - drug concentration which causes 50% cell growth inhibition
Source text: as §4

[2] = tested on: 10.05 pancreatic cancer line; test: Flow cytometry (FACS) cell cycle analysis, 10.05; type: cell-based, human; conditions: 10.05 cells
Procedure: (§5) Flow Cytometry Analysis. A suspension of 0.5×10^6 cells in 8 ml of medium were placed in 25 cm^2 T flask and allowed to attach for 24 h. The cells were then exposed for 6 h to 100 nM of drug . After removal of drug the cells were washed with PBS. Fresh medium (8 ml) was added and incubation at 37° C. in 5% CO2 in complete humidity was continued for an additional five days. At appropriate intervals, treated and control cells were released from flasks by incubation with trypsin (0.05 mg/ml)/EDTA (0.02 mg/ml) for 5 min at 37° C., collected in ice-cold PBS, combined with the removed medium that might contain floating cells, and centrifuged at 4° C. Cell pellets were re-suspended in PBS containing 1% fetal bovine serum. The cells were fixed and stained for fluorescence-activated cell sorting according to standard procedures (Crissman et al., Cytometry 3:84-90(1992)). Fluorescence histograms were obtained on a Coulter EPICS753 Cell Sorter using an argon laser and mean peaks were analyzed.
(§6) Similar cell cycle experiments were carried out on the 10.05 pancreatic cancer line.

[3] = tested on: pancreatic cell line 10.05; test: SRB-based assay, pancreatic cell line 10.05 (FIG. 5); set-up: species or system human; conditions: 120 hrs exposure
Source text: as §4
(§7) The compound of Example 2 is also potently cytotoxic against extremely refractory pancreatic cancer cell lines. FIG. 5 presents the results of an SRB-based assay on the toxicity of Example 2 against the four cell lines mentioned above, and against two pancreatic cell lines, 6.03 and 10.05 (obtained from Dr. Elizabeth Jaffe, Johns Hopkins University, Baltimore Md.). […] were exposed to the agent for 120 hrs. It is clear that both of these lines are sensitive to the compound.

[4] = tested on: HCT116, HT29, A549 and Mel.SK2 tumor cell lines; test: Sulforhodamine B (SRB) assay on the four tumor types (FIG. 4); type: cell-based; conditions: varying concentrations
Source text: as §4

[5] = tested on: 6.03 pancreatic cancer cells; test: Flow cytometry (FACS) cell cycle analysis, 6.03; type: cell-based, human; conditions: 6.03 cells
Procedure: as §5, §6

[6] = tested on: pancreatic cell line 6.03; test: SRB-based assay, pancreatic cell line 6.03 (FIG. 5); set-up: species or system human; conditions: 120 hrs exposure
Source text: as §4, §7

[7] = tested on: 10.05 pancreatic cancer cells; test: Morphological examination of treated cells; type: cell-based, human; conditions: 10.05 cells, treated vs untreated
Source text: The FACS analysis evidence of apoptosis was substantiated by morphological examination of the treated 10.05 pancreatic cancer cells. […] Similar results were obtained with the 6.03 cells.

[8] = tested on: HCT 116 colon cancer cell; test: Flow cytometry (FACS) cell cycle analysis, HCT116; type: cell-based, human; conditions: 100 nM for 6 hrs, then culture
Procedure: as §5
In order to determine the mode of cell death induced by the compounds of the invention, the effect of the compound of Example 2 on the cell cycle was studied, utilizing Fluorescence Activated Cell Sorting SACS) analysis. HCT 116 colon cancer cell were treated with the compound of Example 2 for 6 hrs at a concentration of 100 nM, and then allowed to grow in culture for varying times.

[9] = tested on: NCI 60 human tumor cell line panel; test: NCI 60 human tumor cell line panel; type: cell-based; conditions: NCI 60 panel
[10] = read-out: LC50 - drug concentration which causes 50% cell death, MELSK2, 96 h incubation
[11] = read-out: LC50 - drug concentration which causes 50% cell death, HCT116, 96 h incubation
[12] = read-out: LC50 - drug concentration which causes 50% cell death, HT29, 96 h incubation
[13] = read-out: LC50 - drug concentration which causes 50% cell death, A549, 96 h incubation
[14] = MCF7, 96 h incubation, read-out: LC50 - drug concentration which causes 50% cell death
[15] = HL60, 96 h incubation, read-out: LC50 - drug concentration which causes 50% cell death

| SMILES | cytotoxic activity against the three adenocarcinomas [1] | CC50 (MELSK2 cells) [nM] | pIC50 (MELSK2 cells; MELSK2, 96 h incubation) | CC50 (HCT116 cells) [nM] | growth inhibition of HCT116 at 1 nM (HCT116 cells; FIG. 3) | pIC50 (HCT116 cells; HCT116, 96 h incubation) | CC50 (HT29 cells) [nM] | pIC50 (HT29 cells; HT29, 96 h incubation) | CC50 (A549 cells) [nM] | pIC50 (A549 cells; A549, 96 h incubation) | CC50 (MCF7 cells) [nM] | pIC50 (MCF7 cells; MCF7, 96 h incubation) | CC50 (HL60 cells) [nM] | pIC50 (HL60 cells; HL60, 96 h incubation) | CC50 (MELSK2 cells; [10]) [nM] | CC50 (HCT116 cells; [11]) [nM] | CC50 (HT29 cells; [12]) [nM] | CC50 (A549 cells; [13]) [nM] | CC50 (MCF7 cells; [14]) [nM] | CC50 (HL60 cells; [15]) [nM] | further results |
| --- | --- | --- | --- | --- | --- | --- | --- | --- | --- | --- | --- | --- | --- | --- | --- | --- | --- | --- | --- | --- | --- |
| O=C1c2cccc3cc([N+](=O)[O-])cc(c23)C(=O)N1CCCN1CCN(CCCNc2ccc3ncn4c5ccc(F)cc5c(=O)c2c34)CC1 [Example 4] | outstanding cytotoxic activity | 70 | 8.40 | 35 | almost complete growth inhibition | 9.30 | 35 | 8.82 | 35 | 9.22 | > 1000 | 8.46 | 33 | 8.46 |  |  |  |  |  |  |  |
| Nc1cc2c3c(cccc3c1)C(=O)N(CCCN1CCN(CCCNc3ccc4ncn5c6ccc(F)cc6c(=O)c3c45)CC1)C2=O [Example 8] |  | > 1000 | 7.70 | 230 |  | 8.74 | > 1000 | 8.46 | 150 | 8.70 | > 1000 | 7.34 | 450 | 8.40 |  |  |  |  |  |  |  |
| CN(C)CCN1C(=O)c2cccc3cc([N+](=O)[O-])cc(c23)C1=O [Mitonafide, mitonafide, reference compound] |  |  |  |  |  |  |  |  |  |  |  |  |  |  |  |  |  |  |  |  | activity at 100 nM drug concentration ([1]; HCT116, HT29, A549, MelSK2): not very active; pIC50 (MELSK2 cells; Homo sapiens, 96 h): 6.82; CC50 (MELSK2 cells; Homo sapiens, 96 h, read-out: LC50 - drug concentration which causes 50% cell death): 700 nM; concentration at which almost complete growth inhibition is reached (HCT116 cells; HCT116, MTT dose-response, FIG. 3): 1 µM; pIC50 (HCT116 cells; Homo sapiens, HCT-116, 96 h): 6.60; CC50 (HCT116 cells; Homo sapiens, HCT-116, 96 h, read-out: LC50 - drug concentration which causes 50% cell death): > 1000 nM; pIC50 (HT29 cells; Homo sapiens, HT-29, 96 h): 6.52; pIC50 (A549 cells; Homo sapiens, A549, 96 h): 7.19; CC50 (A549 cells; Homo sapiens, A549, 96 h, read-out: LC50 - drug concentration which causes 50% cell death): 800 nM; pIC50 (MCF7 cells; Homo sapiens, MCF7, 96 h): 6.61; CC50 (MCF7 cells; Homo sapiens, MCF7, 96 h, read-out: LC50 - drug concentration which causes 50% cell death): > 1000 nM; pIC50 (HL60 cells; Homo sapiens, HL-60, 96 h): 7.35; CC50 (HL60 cells; Homo sapiens, HL-60, 96 h, read-out: LC50 - drug concentration which causes 50% cell death): 400 nM |
| O=C1c2cccc3cc([N+](=O)[O-])cc(c23)C(=O)N1CCCN1CCN(CCCNc2ccc3ncn4c5ccccc5c(=O)c2c34)CC1 [Example 2] | outstanding cytotoxic activity | 60 | 8.40 | 32 | almost complete growth inhibition | 9.30 | 65 | 9.05 | 35 | 9.22 | > 1000 | 8.49 | 33 | 8.46 |  |  |  |  |  |  | apoptosis (growth of the sub-G1 fraction) at 144 hrs [2]: substantial apoptosis; effect on line 10.05 at 1 μM [3]: substantial cell death; cytotoxic activity in the SRB assay compared with MTT [4]: essentially mirror the results obtained with the MTT end-point; apoptosis by cell cycle analysis [5]: strong evidence of apoptosis; effect on line 6.03 at 100 nM [6]: growth arrested; morphology of treated cells [7]: evidence of chromatin fragmentation; cell cycle effect at 24 hrs ([8]; 24 hrs): growth arrested at G2-M; sub-G1 fraction (apoptotic death) at 96 hrs ([8]; 96 hrs): dominated the distribution; median activity, growth inhibition of all of the tumor cell lines [9]: nanomolar range |
| Nc1cc2c3c(cccc3c1)C(=O)N(CCCN1CCN(CCCNc3ccc4ncn5c6ccccc6c(=O)c3c45)CC1)C2=O [Example 6] |  |  | 7.82 |  |  | 8.66 |  | 8.10 |  | 8.60 |  | 7.49 |  | 8.30 | 750 | 80 | 750 | 100 | > 1000 | 450 |  |
| CN(CCCNc1ccc2ncn3c4ccccc4c(=O)c1c23)CCCN1C(=O)c2cccc3cc([N+](=O)[O-])cc(c23)C1=O [Example 1] |  |  | 6.82 |  |  | 8.10 |  | 7.60 |  | 7.60 |  | 7.30 |  | 6.92 | > 1000 | 220 | 400 | 500 | > 1000 | 500 |  |
